Article PMC5094563 (Chemmedchem, 2016)
pIC50: −log10 of the molar value. Like-named read-outs stand apart in the source and are kept apart here.

Key:
p110β = p110β (Homo sapiens, UniProt P42338); test: Biochemical IC50 assay
p110α = p110α (Homo sapiens, UniProt P42336); test: Biochemical IC50 assay
[1] = male Wistar rats; cited from earlier work
[2] = male CD1 mice; cited from earlier work
[3] = female Beagle dogs; cited from earlier work
[4] = male humans; cited from earlier work
Caco2 = details: 10 μM, absence of a P‐gp inhibitor; cited from earlier work
P‐gp [5] = details: cited from earlier work
BCRP [6] = details: cited from earlier work
P‐gp [7] = details: read-out: P‐gp mediated transport inhibition IC50, cited from earlier work
BCRP [8] = details: read-out: BCRP mediated transport inhibition IC50; for topotecan; cited from earlier work
[9] = all species investigated including mouse, rat, dog and monkey; cited from earlier work

Chain of p110α (P42336 109-1068): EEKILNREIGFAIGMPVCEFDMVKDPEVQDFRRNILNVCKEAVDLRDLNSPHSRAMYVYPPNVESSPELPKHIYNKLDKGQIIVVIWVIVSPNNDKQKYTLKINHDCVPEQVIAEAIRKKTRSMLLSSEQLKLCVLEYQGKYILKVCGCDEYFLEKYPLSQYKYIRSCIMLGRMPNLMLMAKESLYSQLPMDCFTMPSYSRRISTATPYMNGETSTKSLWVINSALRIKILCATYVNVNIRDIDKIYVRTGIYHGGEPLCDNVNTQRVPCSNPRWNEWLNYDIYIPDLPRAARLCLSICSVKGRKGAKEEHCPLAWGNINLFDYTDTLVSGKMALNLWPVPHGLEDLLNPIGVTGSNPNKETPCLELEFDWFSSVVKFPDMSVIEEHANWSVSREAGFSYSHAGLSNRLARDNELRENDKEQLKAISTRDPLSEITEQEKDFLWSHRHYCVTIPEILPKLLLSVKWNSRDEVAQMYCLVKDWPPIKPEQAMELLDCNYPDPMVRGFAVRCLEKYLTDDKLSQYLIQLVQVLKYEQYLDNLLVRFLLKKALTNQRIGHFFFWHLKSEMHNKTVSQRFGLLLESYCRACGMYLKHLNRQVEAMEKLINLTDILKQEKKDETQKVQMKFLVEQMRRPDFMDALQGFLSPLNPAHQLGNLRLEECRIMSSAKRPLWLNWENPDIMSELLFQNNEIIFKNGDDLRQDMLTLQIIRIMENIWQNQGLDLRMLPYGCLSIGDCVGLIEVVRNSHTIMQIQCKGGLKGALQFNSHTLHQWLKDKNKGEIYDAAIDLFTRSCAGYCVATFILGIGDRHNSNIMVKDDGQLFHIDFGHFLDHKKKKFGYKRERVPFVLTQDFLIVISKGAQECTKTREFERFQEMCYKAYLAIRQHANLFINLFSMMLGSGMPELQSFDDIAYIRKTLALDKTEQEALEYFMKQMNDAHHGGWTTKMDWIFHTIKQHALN
Chain of p110β (P42338 109-1070): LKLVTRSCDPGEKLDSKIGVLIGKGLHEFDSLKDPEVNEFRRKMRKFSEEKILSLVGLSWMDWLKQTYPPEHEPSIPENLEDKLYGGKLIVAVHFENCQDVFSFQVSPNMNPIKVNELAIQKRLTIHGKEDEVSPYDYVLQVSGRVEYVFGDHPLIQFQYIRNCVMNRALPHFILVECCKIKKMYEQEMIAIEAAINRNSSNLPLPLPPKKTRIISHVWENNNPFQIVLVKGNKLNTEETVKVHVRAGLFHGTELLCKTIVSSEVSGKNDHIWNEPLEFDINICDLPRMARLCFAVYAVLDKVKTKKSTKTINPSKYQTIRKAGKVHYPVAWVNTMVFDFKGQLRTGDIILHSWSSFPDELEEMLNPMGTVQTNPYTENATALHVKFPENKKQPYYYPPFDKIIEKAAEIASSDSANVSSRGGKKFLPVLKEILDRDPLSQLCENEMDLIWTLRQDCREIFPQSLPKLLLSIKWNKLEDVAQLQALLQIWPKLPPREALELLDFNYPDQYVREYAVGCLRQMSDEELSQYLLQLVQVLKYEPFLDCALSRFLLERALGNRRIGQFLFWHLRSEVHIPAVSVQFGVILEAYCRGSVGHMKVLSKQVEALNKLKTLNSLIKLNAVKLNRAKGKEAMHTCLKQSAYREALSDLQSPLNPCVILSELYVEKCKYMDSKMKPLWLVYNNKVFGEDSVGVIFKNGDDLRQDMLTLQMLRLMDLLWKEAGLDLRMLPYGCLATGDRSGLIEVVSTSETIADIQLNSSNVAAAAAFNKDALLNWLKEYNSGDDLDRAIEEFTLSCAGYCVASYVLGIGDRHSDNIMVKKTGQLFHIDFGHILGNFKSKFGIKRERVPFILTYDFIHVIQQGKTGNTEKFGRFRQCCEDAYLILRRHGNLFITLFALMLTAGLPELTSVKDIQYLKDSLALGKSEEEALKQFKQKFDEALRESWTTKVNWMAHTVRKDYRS

SMILES	pIC50 (p110β)	pIC50 (p110α)	further results
O=C(NC1=Nc2c(ccc(OCCCN3CCOCC3)c2OCC2CCCCC2)C2=NCCN12)c1cccnc1 [Compd 34 d, N ‐{7‐(Cyclohexylmethoxy)‐8‐[3‐(morpholin‐4‐yl)propoxy]‐2,3‐dihydroimidazo[1,2‐c]quinazolin‐5‐yl}nicotinamide]	7.05		
O=C(NC1=Nc2c(ccc(OCCCN3CCOCC3)c2O)C2=NCCN12)c1cccnc1 [Compd 33, N ‐{7‐Hydroxy‐8‐[3‐(morpholin‐4‐yl)propoxy]‐2,3‐dihydroimidazo[1,2‐c]quinazolin‐5‐yl}nicotinamide]	7.25		
COc1c(OCCCN2CCOCC2)ccc2c1N=C(NC(=O)c1ccncc1)N1CCN=C21 [Compd 39 c, N ‐{7‐Methoxy‐8‐[3‐(morpholin‐4‐yl)propoxy]‐2,3‐dihydroimidazo[1,2‐c]quinazolin‐5‐yl}isonicotinamide]	7.20		
COc1c(OCCCN2CCOCC2)ccc2c1N=C(NC(=O)c1ccc3c(c1)OCO3)N1CCN=C21 [Compd 39 a, N ‐{7‐Methoxy‐8‐[3‐(morpholin‐4‐yl)propoxy]‐2,3‐dihydroimidazo[1,2‐c]quinazolin‐5‐yl}‐1,3‐benzodioxole‐5‐carboxamide]	6.18	7.68	
COc1c(OCCCN2CCOCC2)ccc2c1N=C(NC(=O)c1cnc(N)nc1)N1CCN=C21 [Compd 39 i, 2‐Amino‐N‐{7‐methoxy‐8‐[3‐(morpholin‐4‐yl)propoxy]‐2,3‐dihydroimidazo[1,2‐c]quinazolin‐5‐yl}pyrimidine‐5‐carboxamide]			plasma‐free fraction [1]: 42.5%; plasma‐free fraction [2]: 27.6%; plasma‐free fraction [3]: 42.4%; plasma‐free fraction [4]: 15.8%; Caco2 P app apical (A) to basal (B) (Caco2): 5.69 ± 0.291 ×10⁻⁶ cm/s; substrate of efflux transporter P‐gp (P‐gp [5]): substrate; substrate of efflux transporter BCRP (BCRP [6]): substrate; pIC50 (P‐gp [7]; for digoxin): 5.15; pIC50 (P‐gp [7]; for dipyridamole): 5.12; pIC50 (BCRP [8]): 4.94; volume of distribution (V ss) [9]: 7 to 32 L/kg
O=C(NC1=Nc2c(ccc(OCCCN3CCOCC3)c2OCc2ccncc2)C2=NCCN12)c1cccnc1 [Compd 34 f, N ‐{8‐[3‐(Morpholin‐4‐yl)propoxy]‐7‐[(pyridin‐4‐yl)methoxy]‐2,3‐dihydroimidazo[1,2‐c]quinazolin‐5‐yl}nicotinamide]	7.71		
CC(C)COc1c(OCCCN2CCOCC2)ccc2c1N=C(NC(=O)c1cccnc1)N1CCN=C21 [Compd 34 c, N ‐{7‐Isobutoxy‐8‐[3‐(morpholin‐4‐yl)propoxy]‐2,3‐dihydroimidazo[1,2‐c]quinazolin‐5‐yl}nicotinamide]	7.54	7.99	
COc1c(OCCCN2CCOCC2)ccc2c1N=C(NC(=O)c1cnc(N)nc1C)N1CCN=C21 [Compd 39 j, 2‐Amino‐N‐{7‐methoxy‐8‐[3‐(morpholin‐4‐yl)propoxy]‐2,3‐dihydroimidazo[1,2‐c]quinazolin‐5‐yl}‐4‐methylpyrimidine‐5‐carboxamide]	9.00	9.40	
COc1c(OCCCN2CCOCC2)ccc2c1N=C(NC(=O)c1ccnc(N)c1)N1CCN=C21 [Compd 39 d, 2‐Amino‐N‐{7‐methoxy‐8‐[3‐(morpholin‐4‐yl)propoxy]‐2,3‐dihydroimidazo[1,2‐c]quinazolin‐5‐yl}isonicotinamide]	7.78	8.21	
COc1c(OCC(C)C)ccc2c1N=C(NC(=O)c1cccnc1)N1CCN=C21 [Compd 32 c, N ‐(8‐Isobutoxy‐7‐methoxy‐2,3‐dihydroimidazo[1,2‐c]quinazolin‐5‐yl)nicotinamide]	6.65	8.10	
COc1c(OCCCN2CCOCC2)ccc2c1N=C(NC(=O)c1ccc(N(C)C)nc1)N1CCN=C21 [Compd 39 f, 6‐(Dimethylamino)‐N‐{7‐methoxy‐8‐[3‐(morpholin‐4‐yl)propoxy]‐2,3‐dihydroimidazo[1,2‐c]quinazolin‐5‐yl}nicotinamide]	7.23	8.54	
COc1c(OCCCCN2CCOCC2)ccc2c1N=C(NC(=O)c1cccnc1)N1CCN=C21 [Compd 32 i, N ‐{7‐Methoxy‐8‐[4‐(morpholin‐4‐yl)butoxy]‐2,3‐dihydroimidazo[1,2‐c]quinazolin‐5‐yl}nicotinamide]	7.06		
COc1c(OCCCN2CCOCC2)ccc2c1N=C(NC(=O)c1cncnc1)N1CCN=C21 [Compd 39 h, N ‐{7‐Methoxy‐8‐[3‐(morpholin‐4‐yl)propoxy]‐2,3‐dihydroimidazo[1,2‐c]quinazolin‐5‐yl}pyrimidine‐5‐carboxamide]	6.54	6.88	
COc1c(OCCCN2CCOCC2)ccc2c1N=C(NC(=O)c1sc(C)nc1C)N1CCN=C21 [Compd 39 b, N ‐{7‐Methoxy‐8‐[3‐(morpholin‐4‐yl)propoxy]‐2,3‐dihydroimidazo[1,2‐c]quinazolin‐5‐yl}‐2,4‐dimethyl‐1,3‐thiazole‐5‐carboxamide]	8.11	8.80	
COc1c(OCCCN2CCOCC2)ccc2c1N=C(NC(=O)c1cnccn1)N1CCN=C21 [Compd 39 g, N ‐{7‐Methoxy‐8‐[3‐(morpholin‐4‐yl)propoxy]‐2,3‐dihydroimidazo[1,2‐c]quinazolin‐5‐yl}pyrazine‐2‐carboxamide]	6.45		
COc1c(OCCCN2CCOCC2)ccc2c1N=C(NC(=O)c1ccc(N)nc1)N1CCN=C21 [Compd 39 e, 6‐Amino‐N‐{7‐methoxy‐8‐[3‐(morpholin‐4‐yl)propoxy]‐2,3‐dihydroimidazo[1,2‐c]quinazolin‐5‐yl}nicotinamide]	8.10	9.22	
O=C(NC1=Nc2c(ccc(OCCCN3CCOCC3)c2OCC2CCOCC2)C2=NCCN12)c1cccnc1 [Compd 34 e, N ‐{8‐[3‐(Morpholin‐4‐yl)propoxy]‐7‐[(tetrahydro‐2H‐pyran‐4‐yl)methoxy]‐2,3‐dihydroimidazo[1,2‐c]quinazolin‐5‐yl}nicotinamide]	7.74	8.68	

More lines, main results first:

pIC50 (p110β)	pIC50 (p110α)	SMILES	further results
6.68	8.06	COc1c(O)ccc2c1N=C(NC(=O)c1cccnc1)N1CCN=C21 [Compd 31, N ‐(8‐Hydroxy‐7‐methoxy‐2,3‐dihydroimidazo[1,2‐c]quinazolin‐5‐yl)nicotinamide]	
7.74	8.44	COc1c(OCCCN(C)C)ccc2c1N=C(NC(=O)c1cccnc1)N1CCN=C21 [Compd 32 e, N ‐{8‐[3‐(Dimethylamino)propoxy]‐7‐methoxy‐2,3‐dihydroimidazo[1,2‐c]quinazolin‐5‐yl}nicotinamide]	
8.11		CCCOc1c(OCCCN2CCOCC2)ccc2c1N=C(NC(=O)c1cccnc1)N1CCN=C21 [Compd 34 a, N ‐{8‐[3‐(Morpholin‐4‐yl)propoxy]‐7‐propoxy‐2,3‐dihydroimidazo[1,2‐c]quinazolin‐5‐yl}nicotinamide]	
7.65		C=CCOc1c(OCCCN2CCOCC2)ccc2c1N=C(NC(=O)c1cccnc1)N1CCN=C21 [Compd 34 b, N ‐{7‐(Allyloxy)‐8‐[3‐(morpholin‐4‐yl)propoxy]‐2,3‐dihydroimidazo[1,2‐c]quinazolin‐5‐yl}nicotinamide]	
7.74	8.54	COc1c(OCCCN2CCCCC2)ccc2c1N=C(NC(=O)c1cccnc1)N1CCN=C21 [Compd 32 f, N ‐{7‐Methoxy‐8‐[3‐(piperidin‐1‐yl)propoxy]‐2,3‐dihydroimidazo[1,2‐c]quinazolin‐5‐yl}nicotinamide]	
7.95	9.05	COc1c(OCCN2CCOCC2)ccc2c1N=C(NC(=O)c1cccnc1)N1CCN=C21 [Compd 32 h, N ‐{7‐Methoxy‐8‐[2‐(morpholin‐4‐yl)ethoxy]‐2,3‐dihydroimidazo[1,2‐c]quinazolin‐5‐yl}nicotinamide]	
7.68	8.74	COc1c(OCCCN2CCOCC2)ccc2c1N=C(NC(=O)c1cccnc1)N1CCN=C21 [Compd 32 g, N ‐{7‐Methoxy‐8‐[3‐(morpholin‐4‐yl)propoxy]‐2,3‐dihydroimidazo[1,2‐c]quinazolin‐5‐yl}nicotinamide]	
5.82	8.21	COc1c(OCc2ccccc2)ccc2c1N=C(NC(=O)c1cccnc1)N1CCN=C21 [Compd 30, N ‐[8‐(Benzyloxy)‐7‐methoxy‐2,3‐dihydroimidazo[1,2‐c]quinazolin‐5‐yl]nicotinamide]	
7.12	8.44	CCOc1ccc2c(c1OC)N=C(NC(=O)c1cccnc1)N1CCN=C21 [Compd 32 b, N ‐(8‐Ethoxy‐7‐methoxy‐2,3‐dihydroimidazo[1,2‐c]quinazolin‐5‐yl)nicotinamide]	
